Laboratory results: patent US8835377B2, “Oral delivery of peptide pharmaceutical compositions” (UGP Therapeutics, Inc., priority 2004, dated 2014)
Where two headings read alike, the source gives them in different places.

Test: Pharmacokinetics after duodenal injection of unformulated or formulated Dmt-DALDA in anesthetized rats (plasma, HPLC-UV)
Assay type: in vivo
Settings: for Tmax / Cmax / AUC: Unformulated; for Cmax / AUC: rat; for AUC: trapezoidal rule; for Dmt-DALDA plasma concentration: unformulated
Experimental: In the experiments represented in the subject Figure, six anesthetized rats (which were color-coded as: red, white, blue, orange, green and yellow) were given 0.7 mL Dmt-DALDA (1.6 mg/mL) with a syringe through a 27 gauge needle into the duodenum. This injection procedure was followed due to the technical difficulty inherent in preparing capsules which can be swallowed by small animals the size of a rat. The intraduodanal injection, therefore, mimics the release of the components of an enteric-coated capsule formulation which would pass through the esophagus and stomach and release its contents in the duodenum. Three of the rats (red, white and blue) were given Unformulated Dmt-DALDA in which there were no additional components (i.e., other than the Dmt-DALDA), while the other three rats (orange, green and yellow) were given Formulated Dmt-DALDA which included, in addition to the Dmt-DALDA, 0.5M citric acid and lauroyl carnitine (10 mg/ml). Samples of blood were taken from the carotid artery through an indwelling catheter before and 5, 15, 30, 60 and 120 minutes after the administration of the respective formulations (i.e., Formulated and Unformulated). The blood samples were centrifuged and the resulting plasma supernatants were stored frozen at −20° C. […] Peptide was detected with an ultraviolet (UV) detector set at a wavelength of 210 nm. […] Table I, moreover, provides the standard deviations for the data obtained regarding each of the test rats, which standard deviations are also indicated in FIG. 1.
Table II (below) summarizes the pharmacokinetic parameters in rats of orally administered unformulated and formulated Dmt-DALDA as those terms are defined above. Cmax refers to the maximum concentration of peptide detected in the rat plasma. The area under the curve (AUC) is a measure of the extent of peptide absorption and is calculated by the trapezoidal rule from a plot of peptide concentration as a function of time. Tmax indicates when the maximum concentration of the Dmt-DALDA in the blood serum was obtained.

SMILES: Cc1cc(O)cc(C)c1C[C@H](N)C(=O)N[C@H](CCCNC(=N)N)C(=O)N[C@@H](Cc1ccccc1)C(=O)N[C@@H](CCCCN)C(N)=O [unformulated]
- Tmax (Avg (n = 3)): 5.00 min
- Tmax (in vivo, 1.12 mg, Red rat, read-out: Tmax (converted)): 5 min
- Cmax (in vivo, 1.12 mg, Avg (n = 3)): 510 ng/mL
- AUC (in vivo, 1.12 mg, Avg (n = 3)): 64 ng·h/mL
- Cmax (in vivo, 1.12 mg, Red rat): 1540 ng/mL
- AUC (in vivo, 1.12 mg, Red rat): 192 ng·h/mL
- Dmt-DALDA detected in plasma (rats given unformulated Dmt-DALDA): virtually undetectable
- Dmt-DALDA plasma concentration (avg of rats, 0 min): 0.00 µg/mL
- Dmt-DALDA plasma concentration (avg of rats, 15 min): 0.00 µg/mL
- Dmt-DALDA plasma concentration (avg of rats, 30 min): 0.00 µg/mL
- Dmt-DALDA plasma concentration (avg of rats, 60 min): 0.00 µg/mL
- Dmt-DALDA plasma concentration (avg of rats, 120 min): 0.00 µg/mL
- Dmt-DALDA plasma concentration (blue rat, 0 min): 0.00 µg/mL
- Dmt-DALDA plasma concentration (blue rat, 5 min): 0.00 µg/mL
- Dmt-DALDA plasma concentration (blue rat, 15 min): 0.00 µg/mL
- Dmt-DALDA plasma concentration (blue rat, 30 min): 0.00 µg/mL
- Dmt-DALDA plasma concentration (blue rat, 60 min): 0.00 µg/mL
- Dmt-DALDA plasma concentration (blue rat, 120 min): 0.00 µg/mL
- Dmt-DALDA plasma concentration (red rat, 0 min): 0.00 µg/mL
- Dmt-DALDA plasma concentration (red rat, 15 min): 0.00 µg/mL
- Dmt-DALDA plasma concentration (red rat, 30 min): 0.00 µg/mL
- Dmt-DALDA plasma concentration (red rat, 60 min): 0.00 µg/mL
- Dmt-DALDA plasma concentration (red rat, 120 min): 0.00 µg/mL
- Dmt-DALDA plasma concentration (white rat, 0 min): 0.00 µg/mL
- Dmt-DALDA plasma concentration (white rat, 5 min): 0.00 µg/mL
- Dmt-DALDA plasma concentration (white rat, 15 min): 0.00 µg/mL
- Dmt-DALDA plasma concentration (white rat, 30 min): 0.00 µg/mL
- Dmt-DALDA plasma concentration (white rat, 60 min): 0.00 µg/mL
- Dmt-DALDA plasma concentration (white rat, 120 min): 0.00 µg/mL
